{"source": "paper PMC2848180", "about": "(American journal of obstetrics and gynecology, 2010)", "key": {"[1]": {"tested_on": "placental ABC transporters (placental IOVs)", "assay_type": "in vitro ADME, human", "conditions": "for total ATP-dependent uptake by placental IOVs: 100 nM radiolabeled drug, 1 min, pool of 60 term placentas"}, "MRP1": {"molecular_target": "MRP1 (Homo sapiens, UniProt P33527)", "sequence (P33527 whole entry)": "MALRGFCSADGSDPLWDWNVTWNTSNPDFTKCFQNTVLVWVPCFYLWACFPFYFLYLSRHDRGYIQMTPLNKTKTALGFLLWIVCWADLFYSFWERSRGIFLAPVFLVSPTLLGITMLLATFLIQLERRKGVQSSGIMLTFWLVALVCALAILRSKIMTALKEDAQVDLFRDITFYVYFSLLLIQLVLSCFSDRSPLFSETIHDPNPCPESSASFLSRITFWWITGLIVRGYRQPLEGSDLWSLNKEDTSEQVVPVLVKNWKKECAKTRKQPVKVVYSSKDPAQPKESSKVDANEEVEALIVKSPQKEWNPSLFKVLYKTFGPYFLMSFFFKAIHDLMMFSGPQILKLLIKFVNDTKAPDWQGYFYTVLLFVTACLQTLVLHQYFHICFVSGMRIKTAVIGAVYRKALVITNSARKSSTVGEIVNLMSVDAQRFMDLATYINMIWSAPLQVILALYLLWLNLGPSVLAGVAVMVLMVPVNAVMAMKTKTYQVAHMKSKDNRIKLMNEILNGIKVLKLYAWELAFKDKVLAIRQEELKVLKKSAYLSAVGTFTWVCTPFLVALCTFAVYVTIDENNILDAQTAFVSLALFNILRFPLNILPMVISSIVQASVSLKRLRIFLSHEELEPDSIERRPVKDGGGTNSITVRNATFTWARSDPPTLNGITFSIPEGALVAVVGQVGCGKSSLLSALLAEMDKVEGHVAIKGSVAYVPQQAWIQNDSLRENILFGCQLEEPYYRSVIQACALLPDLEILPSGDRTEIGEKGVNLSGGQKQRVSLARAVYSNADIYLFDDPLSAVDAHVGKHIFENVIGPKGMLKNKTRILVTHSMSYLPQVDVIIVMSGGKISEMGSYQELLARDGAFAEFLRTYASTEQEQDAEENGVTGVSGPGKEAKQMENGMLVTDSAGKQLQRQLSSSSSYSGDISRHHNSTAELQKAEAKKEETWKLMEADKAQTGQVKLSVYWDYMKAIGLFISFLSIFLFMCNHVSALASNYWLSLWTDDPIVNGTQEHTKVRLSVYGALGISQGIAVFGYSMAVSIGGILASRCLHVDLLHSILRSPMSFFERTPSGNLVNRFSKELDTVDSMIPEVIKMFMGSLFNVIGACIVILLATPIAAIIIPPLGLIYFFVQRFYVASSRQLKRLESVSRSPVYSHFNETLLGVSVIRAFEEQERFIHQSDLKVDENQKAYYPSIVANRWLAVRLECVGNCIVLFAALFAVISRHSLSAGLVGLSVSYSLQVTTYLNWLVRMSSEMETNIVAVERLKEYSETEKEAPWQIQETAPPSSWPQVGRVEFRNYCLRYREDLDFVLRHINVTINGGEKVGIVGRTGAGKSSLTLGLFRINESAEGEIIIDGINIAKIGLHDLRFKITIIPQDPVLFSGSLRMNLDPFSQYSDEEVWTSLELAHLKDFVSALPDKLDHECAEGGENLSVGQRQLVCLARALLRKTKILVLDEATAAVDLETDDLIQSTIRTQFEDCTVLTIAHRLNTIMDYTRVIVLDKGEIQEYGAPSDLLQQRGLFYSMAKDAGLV", "conditions": "placental IOVs"}, "P-gp, BCRP, and MRP1": {"tested_on": "P-gp, BCRP, and MRP1", "conditions": "100 nM drug, 1 μM KO143, placental IOVs, 1 min"}, "P-gp [2]": {"molecular_target": "T1, P-gp (Homo sapiens, UniProt P08183)", "T1 sequence (P08183 whole entry)": "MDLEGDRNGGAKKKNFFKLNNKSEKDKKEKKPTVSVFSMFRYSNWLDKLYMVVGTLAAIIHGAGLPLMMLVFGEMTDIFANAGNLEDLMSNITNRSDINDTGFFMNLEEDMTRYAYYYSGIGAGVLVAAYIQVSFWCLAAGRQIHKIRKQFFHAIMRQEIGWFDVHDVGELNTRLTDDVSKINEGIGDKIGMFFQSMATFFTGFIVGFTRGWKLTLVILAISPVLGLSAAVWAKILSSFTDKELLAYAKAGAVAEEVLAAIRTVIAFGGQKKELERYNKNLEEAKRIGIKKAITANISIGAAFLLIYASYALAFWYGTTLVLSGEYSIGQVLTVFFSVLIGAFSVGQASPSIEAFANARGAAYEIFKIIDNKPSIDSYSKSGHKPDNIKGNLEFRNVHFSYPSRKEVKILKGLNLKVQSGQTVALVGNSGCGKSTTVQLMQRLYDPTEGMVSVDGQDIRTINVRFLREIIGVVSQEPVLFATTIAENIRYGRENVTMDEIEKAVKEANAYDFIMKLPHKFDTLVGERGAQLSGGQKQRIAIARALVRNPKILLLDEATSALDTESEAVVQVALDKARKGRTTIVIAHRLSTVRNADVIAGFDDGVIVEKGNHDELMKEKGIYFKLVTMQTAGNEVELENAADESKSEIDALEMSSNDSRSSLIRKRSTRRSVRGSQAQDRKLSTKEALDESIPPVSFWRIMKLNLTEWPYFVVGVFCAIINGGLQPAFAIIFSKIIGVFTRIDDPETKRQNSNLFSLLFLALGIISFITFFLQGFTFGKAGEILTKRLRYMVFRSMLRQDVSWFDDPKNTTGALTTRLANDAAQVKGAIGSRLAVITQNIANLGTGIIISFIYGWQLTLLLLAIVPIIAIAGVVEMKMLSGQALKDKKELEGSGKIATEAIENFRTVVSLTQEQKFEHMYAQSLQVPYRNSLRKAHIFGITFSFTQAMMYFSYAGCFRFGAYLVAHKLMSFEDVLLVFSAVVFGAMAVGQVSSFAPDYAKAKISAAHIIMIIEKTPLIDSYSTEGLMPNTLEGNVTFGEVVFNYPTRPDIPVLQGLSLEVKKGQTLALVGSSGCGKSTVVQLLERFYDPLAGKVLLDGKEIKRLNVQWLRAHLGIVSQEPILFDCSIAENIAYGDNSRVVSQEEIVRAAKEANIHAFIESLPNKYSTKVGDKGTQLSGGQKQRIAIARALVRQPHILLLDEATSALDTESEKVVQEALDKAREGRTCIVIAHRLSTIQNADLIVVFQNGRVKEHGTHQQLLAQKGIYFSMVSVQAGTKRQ", "experiment": "Inhibition of [3H]-rosiglitazone uptake by placental IOVs by cold metformin", "assay_type": "in vitro ADME"}, "P-gp [3]": {"molecular_target": "T1, P-gp", "conditions": "placental IOVs"}, "BCRP": {"molecular_target": "T2, BCRP (Homo sapiens, UniProt Q9UNQ0)", "T2 sequence (Q9UNQ0 1-655)": "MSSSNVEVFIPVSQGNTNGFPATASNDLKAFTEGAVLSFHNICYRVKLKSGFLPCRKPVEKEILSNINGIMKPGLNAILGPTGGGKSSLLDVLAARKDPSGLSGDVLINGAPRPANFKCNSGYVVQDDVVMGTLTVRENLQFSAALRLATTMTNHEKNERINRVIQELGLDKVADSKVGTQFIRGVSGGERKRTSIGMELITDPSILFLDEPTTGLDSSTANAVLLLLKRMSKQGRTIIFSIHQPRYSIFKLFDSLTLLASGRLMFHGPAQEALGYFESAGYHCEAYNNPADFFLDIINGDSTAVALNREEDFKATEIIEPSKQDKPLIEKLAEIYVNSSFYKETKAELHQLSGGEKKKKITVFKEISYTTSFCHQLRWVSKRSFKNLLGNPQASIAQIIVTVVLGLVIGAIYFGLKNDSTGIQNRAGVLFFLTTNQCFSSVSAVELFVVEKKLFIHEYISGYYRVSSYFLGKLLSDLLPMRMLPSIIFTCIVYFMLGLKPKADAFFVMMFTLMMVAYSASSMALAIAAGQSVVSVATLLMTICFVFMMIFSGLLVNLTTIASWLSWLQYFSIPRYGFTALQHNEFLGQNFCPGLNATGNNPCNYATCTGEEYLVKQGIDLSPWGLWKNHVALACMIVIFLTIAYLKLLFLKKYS", "conditions": "100 nM drug, 25 nM KO143, placental IOVs, 1 min"}, "P-gp [4]": {"molecular_target": "T1, P-gp", "conditions": "placental brush border membrane vesicles; cited from earlier work"}, "[5]": {"conditions": "100 nM, ABC transporters examined"}}, "note": "“And” between values parts separate entries of the source, which are not always exact repeats. Equal values may be shown once.", "data": [{"smiles": "COc1ccc(Cl)cc1C(=O)NCCc1ccc(S(=O)(=O)NC(=O)NC2CCCCC2)cc1", "note": "[glyburide]", "values": [{"measurement": "total ATP-dependent uptake by placental IOVs", "setting": "[1]", "value": "3.2 ± 0.3", "unit": "pmol/mg protein*min"}, {"measurement": "apparent Kt of ATP-dependent transport by MRP1", "setting": "MRP1", "value": "358 ± 195", "unit": "nM"}, {"measurement": "decrease of uptake on total inhibition of P-gp, BCRP, and MRP1 using 1 μM KO143", "setting": "P-gp, BCRP, and MRP1", "value": "78 ± 4", "unit": "%"}]}, {"smiles": "CN(C)C(=N)N=C(N)N", "note": "[metformin]", "values": [{"measurement": "total ATP-dependent uptake by placental IOVs", "setting": "[1]", "value": 35, "unit": "pmol/mg protein*min"}, {"measurement": "fold greater total transport than glyburide", "setting": "[1]; [5]", "value": 10, "unit": "fold"}, {"measurement": "fold greater total transport than rosiglitazone", "setting": "[1]; [5]", "value": 30, "unit": "fold"}, {"measurement": "IC50", "setting": "P-gp [2]", "value": "~0.6", "unit": "µM"}, {"measurement": "inhibition at 1 min", "setting": "P-gp [2]; human, placental inside-out vesicles (IOVs), probe [3H]-rosiglitazone, 100 nM", "value": "69 ± 6", "unit": "%"}, {"measurement": "decrease of uptake on inhibition of P-gp by verapamil (transport by P-gp)", "setting": "P-gp [3]; 100 nM drug, 600 μM verapamil, 1 min", "value": "58 ± 20% and 58 ± 10%"}, {"measurement": "apparent Kt of ATP-dependent transport by P-gp", "setting": "P-gp [3]", "value": "100 ± 85", "unit": "nM"}, {"measurement": "decrease of uptake on inhibition of BCRP by 25 nM KO143 (transport by BCRP)", "setting": "BCRP", "value": "25 ± 14% and 25 ± 8%"}, {"measurement": "decrease of uptake on inhibition of MRP1 by indomethacin (transport by MRP1)", "setting": "MRP1; 100 nM drug, 100 μM indomethacin, 1 min", "value": "no effect"}, {"measurement": "decrease of uptake on total inhibition of P-gp, BCRP, and MRP1 using 1 μM KO143", "setting": "P-gp, BCRP, and MRP1", "value": "89 ± 6", "unit": "%"}]}, {"smiles": "CC(=O)O[C@H]1C(=O)[C@@]2(C)[C@H]([C@H](OC(=O)c3ccccc3)[C@]3(O)C[C@H](OC(=O)[C@H](O)[C@@H](NC(=O)c4ccccc4)c4ccccc4)C(C)=C1C3(C)C)[C@]1(OC(C)=O)CO[C@@H]1C[C@@H]2O", "note": "[paclitaxel]", "values": [{"measurement": "Kt of P-gp-mediated transport", "setting": "P-gp [4]", "value": "66 ± 38", "unit": "nM"}, {"measurement": "Vmax of P-gp-mediated transport", "setting": "P-gp [4]", "value": "20 ± 3", "unit": "pmol/mg protein*min"}]}, {"smiles": "CN(CCOc1ccc(CC2SC(=O)NC2=O)cc1)c1ccccn1", "note": "(stereo not shown) [rosiglitazone]", "values": [{"measurement": "total ATP-dependent uptake by placental IOVs", "setting": "[1]", "value": "1.2 ± 0.2", "unit": "pmol/mg protein*min"}]}]}
